Measured values reported in paper PMC10609608, “Design, Synthesis, In Vitro Biological Evaluation and In Silico Molecular Docking Study of Benzimidazole-Based Oxazole Analogues: A Promising Acetylcholinesterase and Butyrylcholinesterase Inhibitors” (Molecules, 2023).

Assays:
[1] = molecular target: butyrylcholinesterase (BuChE) (Homo sapiens, UniProt P06276); experiment: biochemical; settings: in vitro; donepezil as standard; read-out: BuChE IC50 ± SEM
Description: (§1) According to previously established protocols, in vitro AChE and BuChE inhibition profiles were evaluated with slight modifications.

[2] = molecular target: acetylcholinesterase (AChE) (Homo sapiens, UniProt P22303); experiment: biochemical; settings: in vitro; donepezil as standard; read-out: AChE IC50 ± SEM
Description: as §1

Chain of acetylcholinesterase (AChE) (P22303 32-614): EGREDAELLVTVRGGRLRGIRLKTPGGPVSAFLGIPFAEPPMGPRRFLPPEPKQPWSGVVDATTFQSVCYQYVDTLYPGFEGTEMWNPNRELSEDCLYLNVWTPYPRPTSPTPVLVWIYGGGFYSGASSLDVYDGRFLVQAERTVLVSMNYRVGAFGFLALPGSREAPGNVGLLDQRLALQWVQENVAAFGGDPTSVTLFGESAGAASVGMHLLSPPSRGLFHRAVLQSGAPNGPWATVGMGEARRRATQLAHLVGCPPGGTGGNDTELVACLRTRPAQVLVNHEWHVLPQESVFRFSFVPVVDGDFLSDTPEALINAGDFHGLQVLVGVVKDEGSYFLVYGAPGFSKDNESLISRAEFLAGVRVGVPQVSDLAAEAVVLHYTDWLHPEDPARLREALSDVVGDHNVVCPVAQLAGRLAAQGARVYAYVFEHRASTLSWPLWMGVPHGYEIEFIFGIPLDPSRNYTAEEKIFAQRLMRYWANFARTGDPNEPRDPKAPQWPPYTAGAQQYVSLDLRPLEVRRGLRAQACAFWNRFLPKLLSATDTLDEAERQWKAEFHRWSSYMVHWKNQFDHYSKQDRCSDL
Chain of butyrylcholinesterase (BuChE) (P06276 29-602): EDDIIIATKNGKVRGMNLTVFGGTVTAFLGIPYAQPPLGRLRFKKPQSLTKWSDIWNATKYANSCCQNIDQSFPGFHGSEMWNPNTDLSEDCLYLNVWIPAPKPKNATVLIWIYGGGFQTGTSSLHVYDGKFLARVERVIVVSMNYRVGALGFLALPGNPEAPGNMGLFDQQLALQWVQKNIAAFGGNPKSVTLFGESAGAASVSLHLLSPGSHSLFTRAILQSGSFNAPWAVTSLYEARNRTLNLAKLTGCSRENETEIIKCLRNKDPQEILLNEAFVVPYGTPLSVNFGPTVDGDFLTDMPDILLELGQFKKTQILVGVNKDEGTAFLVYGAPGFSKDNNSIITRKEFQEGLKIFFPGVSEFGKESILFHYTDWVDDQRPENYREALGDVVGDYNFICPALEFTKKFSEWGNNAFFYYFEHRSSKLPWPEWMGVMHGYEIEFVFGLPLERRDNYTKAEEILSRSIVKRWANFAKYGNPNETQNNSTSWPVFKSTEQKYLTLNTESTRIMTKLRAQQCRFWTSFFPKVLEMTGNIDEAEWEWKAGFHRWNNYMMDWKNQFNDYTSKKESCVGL

SMILES | IC50 [1] [µM] | IC50 [2] [µM]
COc1ccc(/C(CSc2nc3ccccc3[nH]2)=N\Nc2nc(-c3ccccc3[N+](=O)[O-])co2)cc1 [Compound 1, (E)-2-(2-(2-((1H-Benzo[d]imidazol-2-yl)thio)-1-(4-methoxyphenyl)ethylidene)hydrazinyl)-4-(2-nitrophenyl)oxazole] | 1.8 ± 0.1 | 1.1 ± 0.1
Cc1ccc(/C(CSc2nc3ccccc3[nH]2)=N\Nc2nc(-c3ccccc3[N+](=O)[O-])co2)cc1 [Compound 2, (E)-2-(2-(2-((1H-Benzo[d]imidazol-2-yl)thio)-1-(p-tolyl)ethylidene)hydrazinyl)-4-(2-nitrophenyl)oxazole] | 1.9 ± 0.1 | 1.6 ± 0.01
Cc1ccc(/C(CSc2nc3ccccc3[nH]2)=N\Nc2nc(-c3cccc([N+](=O)[O-])c3)co2)cc1 [Compound 3, (E)-2-(2-(2-((1H-Benzo[d]imidazol-2-yl)thio)-1-(p-tolyl)ethylidene)hydrazinyl)-4-(3-nitrophenyl)oxazole] | 5.8 ± 0.1 | 4.4 ± 0.1
Cc1ccc(/C(CSc2nc3ccccc3[nH]2)=N\Nc2nc(-c3ccc(C)cc3)co2)cc1 [Compound 4, (E)-2-(2-(2-((1H-Benzo[d]imidazol-2-yl)thio)-1-(p-tolyl)ethylidene)hydrazinyl)-4-(p-tolyl)oxazole] | 8.3 ± 0.2 | 6.5 ± 0.2
COc1cccc(-c2coc(N/N=C(/CSc3nc4ccccc4[nH]3)c3ccc(C)cc3)n2)c1 [Compound 5, (E)-2-(2-(2-((1H-Benzo[d]imidazol-2-yl)thio)-1-(p-tolyl)ethylidene)hydrazinyl)-4-(3-methoxyphenyl)oxazole] | 11.5 ± 0.2 | 9.8 ± 0.2
Cc1ccc(/C(CSc2nc3ccccc3[nH]2)=N\Nc2nc(-c3ccc(Cl)c(Cl)c3)co2)cc1 [Compound 6, (E)-2-(2-(2-((1H-Benzo[d]imidazol-2-yl)thio)-1-(p-tolyl)ethylidene)hydrazinyl)-4-(3,4-dichlorophenyl)oxazole] | 1.1 ± 0.05 | 0.4 ± 0.05
CN(C)c1ccc(/C(CSc2nc3ccccc3[nH]2)=N\Nc2nc(-c3ccc(Br)cc3)co2)cc1 [Compound 7, (E)-4-(2-((1H-Benzo[d]imidazol-2-yl)thio)-1-(2-(4-(4-bromophenyl)oxazol-2-yl)hydrazono)ethyl)-N,N-dimethylaniline] | 16.3 ± 0.3 | 12.6 ± 0.3
COc1ccccc1-c1coc(N/N=C(/CSc2nc3ccccc3[nH]2)c2ccc(C)cc2)n1 [Compound 8, (E)-2-(2-(2-((1H-Benzo[d]imidazol-2-yl)thio)-1-(p-tolyl)ethylidene)hydrazinyl)-4-(2-methoxyphenyl)oxazole] | 7.2 ± 0.1 | 5.3 ± 0.2
O=[N+]([O-])c1cccc(-c2coc(N/N=C(/CSc3nc4ccccc4[nH]3)c3ccccc3)n2)c1 [Compound 10, (E)-2-(2-(2-((1H-Benzo[d]imidazol-2-yl)thio)-1-phenylethylidene)hydrazinyl)-4-(3-nitrophenyl)oxazole] | 2.1 ± 0.1 | 1.4 ± 0.1
O=[N+]([O-])c1cccc(-c2coc(N/N=C(/CSc3nc4ccccc4[nH]3)c3ccc(Cl)cc3)n2)c1 [Compound 11, (E)-2-(2-(2-((1H-Benzo[d]imidazol-2-yl)thio)-1-(4-chlorophenyl)ethylidene)hydrazi-nyl)-4-(3-nitrophenyl)oxazole] | 1.2 ± 0.01 | 0.7 ± 0.05
Cc1ccc(/C(CSc2nc3ccccc3[nH]2)=N\Nc2nc(-c3ccccc3)co2)cc1 [Compound 13, (E)-2-(2-(2-((1H-Benzo[d]imidazol-2-yl)thio)-1-(p-tolyl)ethylidene)hydrazinyl)-4-phenyloxazole] | 9.7 ± 0.1 | 8.1 ± 0.1
Cc1ccc(/C(CSc2nc3ccccc3[nH]2)=N\Nc2nc(-c3ccc(Cl)cc3Cl)co2)cc1 [Compound 14, (E)-2-(2-(2-((1H-Benzo[d]imidazol-2-yl)thio)-1-(p-tolyl)ethylidene)hydrazinyl)-4-(2,4-dichlorophenyl)oxazole] | 0.3 ± 0.05 | 0.2 ± 0.05
COc1cccc(-c2coc(N/N=C(/CSc3nc4ccccc4[nH]3)c3ccccc3)n2)c1 [Compound 15, (E)-2-(2-(2-((1H-Benzo[d]imidazol-2-yl)thio)-1-phenylethylidene)hydrazinyl)-4-(3-methoxyphenyl)oxazole] | 7.2 ± 0.1 | 5.4 ± 0.1
Cc1ccc(-c2coc(N/N=C(/CSc3nc4ccccc4[nH]3)c3ccc(-c4ccccc4)cc3)n2)cc1 [Compound 16, (E)-2-(2-(2-((1H-Benzo[d]imidazol-2-yl)thio)-1-([1,1′-biphenyl]-4-yl)ethylidene) Hydrazinyl)-4-(p-tolyl)oxazole] | 9.3 ± 0.1 | 6.1 ± 0.1
O=[N+]([O-])c1ccccc1-c1coc(N/N=C(/CSc2nc3ccccc3[nH]2)c2ccccc2)n1 [Compound 17, (E)-2-(2-(2-((1H-Benzo[d]imidazol-2-yl)thio)-1-phenylethylidene)hydrazinyl)-4-(2-nitrophenyl)oxazole] | 3.5 ± 0.1 | 2.5 ± 0.1
O=[N+]([O-])c1ccccc1-c1coc(N/N=C(/CSc2nc3ccccc3[nH]2)c2ccc(Cl)cc2)n1 [Compound 18, (E)-2-(2-(2-((1H-Benzo[d]imidazol-2-yl)thio)-1-(4-chlorophenyl)ethylidene)hydrazinyl)-4-(2-nitrophenyl)oxazole] | 1.7 ± 0.1 | 0.8 ± 0.1
COc1cccc(-c2coc(N/N=C(/CSc3nc4ccccc4[nH]3)c3ccc(Cl)cc3)n2)c1 [Compound 19, (E)-2-(2-(2-((1H-Benzo[d]imidazol-2-yl)thio)-1-(4-chlorophenyl)ethylidene)hydrazinyl)-4-(3-methoxyphenyl)oxazole] | 3.7 ± 0.1 | 2.7 ± 0.2
